Source: PMC8699473, “An Easily Expandable Multi-Drug LC-MS Assay for the Simultaneous Quantification of 57 Oral Antitumor Drugs in Human Plasma” (Cancers, 2021)

Tests used:
[1] = 244 plasma samples; cited from earlier work
[2] = human
[3] = human; remark: listed apart in the source

SMILES | average plasma concentration [1] [ng/mL] | range of plasma concentration [1] [ng/mL] | Long-term stability, 1 month, -20°C Accuracy [%] ([2]; both) | Long-term stability, 1 month, -80°C Accuracy [%] ([2]; both) | Long-term stability, 2 month, -20°C Accuracy [%] ([2]; both) | Long-term stability, 2 month, -80°C Accuracy [%] ([2]; both) | Long-term stability, 3 month, -20°C Accuracy [%] ([2]; both) | Long-term stability, 3 month, -80°C Accuracy [%] ([2]; both) | Long-term stability, 6 weeks, 4°C, without daylight Accuracy [%] [2] [%] | Short-time stability (1h, 56°C) Accuracy [%] [3] [%] | Short-time stability (24h, 4°C, without daylight) Accuracy [%] [3] [%] | Short-time stability (24h, RT, with daylight) Accuracy [%] [3] [%] | Short-time stability (24h, RT, without daylight) Accuracy [%] [3] [%]
C[C@]12CC[C@H](O)CC1=CC[C@@H]1[C@@H]2CC[C@]2(C)C(c3cccnc3)=CC[C@@H]12 [Abiraterone] | 9.3 | 2.0 to 49.8 |  |  |  |  |  |  |  |  |  |  | 
Cc1ccc(C(=O)Nc2ccc(CN3CCN(C)CC3)c(C(F)(F)F)c2)cc1C#Cc1cnc2cccnn12 [Ponatinib] |  |  | 96.0 | 92.6 | 87.7 | 99.1 | 91.3 | 96.8 | 83.5 | 30.7 | 95.7 | 89.6 | 91.7
